The nature of data set [1]: Solubility measurement in methyl ethyl ketone (MEK). The class given is physicochemical. Conditions: concentration when the solute completely dissolved. The procedure:
The solubility measurement was conducted as follows: the compound to be tested was weighed; methyl ethyl ketone (MEK) was slowly added thereto; when the solute completely dissolved, the solution was weighed; and the concentration of the test compound in the solution was determined by calculation.

The nature of data set [2]: Decomposition point measurement (TG/DTA). The class given is physicochemical. Conditions: temperature at which the mass started to decrease, differential thermal analysis, temperature-rise rate 10° C./minute. On the procedure: The UV-Visible absorption spectra measurement was conducted by preparing a chloroform solution of each compound to be tested, and employing a UV-Vis-NIR spectrophotometer (“V-570”; product from JASCO Corporation). The decomposition point measurement was conducted using a thermogravimetry differential thermal analyzer (“TG/DTA 6200”; product from Seiko Instruments Inc.), to find the temperature at which the mass started to decrease in differential thermal analysis at a temperature-rise rate of 10° C./minute.

SMILES strings stand for the structures. Structures can show the parent of a compound that is named as a salt.

Regarding `O=S(=O)(c1ccc2c(c1)[S][Cu-]1([S]2)[S]c2ccc(S(=O)(=O)N3CCOCC3)cc2[S]1)N1CCOCC1` [1-3, reference compound], in data set [1], the “Solubility (MEK)” value stood at 0.20 wt %. Also, the “Decomposition Point” value in data set [2] came out at 198.7 °C.

Take `CN1/C(=C/C=C/C=C/C=C/C=C/C2=[N+](C)c3c(c4ccccc4c4ccccc34)C2(C)C)C(C)(C)c2c1c1ccccc1c1ccccc21` [1-4, reference compound]: the “Solubility (MEK)” value in data set [1] was found to be 0.28 wt %. In addition, in data set [2], the “Decomposition Point” value was determined as 261.3 °C.

With `CN1/C(=C/C=C/C=C/C=C/C=C/C2=[N+](C)c3ccccc3C2(Cc2ccccc2)Cc2ccccc2)C(Cc2ccccc2)(Cc2ccccc2)c2ccccc21` [Example 1-1, Tetrafluoroborate Salt of Compound No. 2], the “Solubility (MEK)” value in data set [1] worked out at 0.16 wt %. Besides, the “Decomposition Point” value in data set [2] worked out at 238.3 °C.

On to `CN1/C(=C/C=C/C=C/C=C/C=C/C2=[N+](C)c3ccccc3C2(Cc2ccccc2)Cc2ccccc2)C(Cc2ccccc2)(Cc2ccccc2)c2ccccc21` [Example 1-2, Bis(Trifluoromethane Sulfone)Imide Salt of Compound No. 2], for which the “Solubility (MEK)” value in data set [1] is 2.34 wt %. Moreover, the “Decomposition Point” value in data set [2] amounted to 248.6 °C.

For `CN1/C(=C/C=C/C=C/C=C/C=C/C2=[N+](C)c3ccc4ccccc4c3C2(C)Cc2ccccc2)C(C)(Cc2ccccc2)c2c1ccc1ccccc21` (stereo not shown) [Example 1-3, Tetrafluoroborate Salt of Compound No. 3], in data set [1], the “Solubility (MEK)” value is reported as 0.97 wt %. The “Decomposition Point” value in data set [2] was 180.5 °C.

As for `CN1/C(=C/C=C/C=C/C=C/C=C/C2=[N+](C)c3ccc4ccccc4c3C2(C)Cc2ccccc2)C(C)(Cc2ccccc2)c2c1ccc1ccccc21` (stereo not shown) [Example 1-4, Bis(Trifluoromethane Sulfone)Imide Salt of Compound No. 3], the “Solubility (MEK)” value in data set [1] was 0.98 wt %. Besides, in data set [2], the “Decomposition Point” value was found to be 255.8 °C.

For the compound `O=S(=O)(c1ccc2c(c1)[S][Cu-]1([S]2)[S]c2ccc(S(=O)(=O)N3CCOCC3)cc2[S]1)N1CCOCC1` [Example 1-5, Quencher (1-1) Salt of Compound No. 3], the “Solubility (MEK)” value in data set [1] was 0.39 wt %. In data set [2], the “Decomposition Point” value was 249.1 °C.

For the compound `CN1/C(=C/C=C/C=C/C=C/C=C/C2=[N+](C)c3ccc4ccccc4c3C2(Cc2ccccc2)Cc2ccccc2)C(Cc2ccccc2)(Cc2ccccc2)c2c1ccc1ccccc21` [Example 1-6, Tetrafluoroborate Salt of Compound No. 4], the “Solubility (MEK)” value in data set [1] stood at 1.62 wt %. In data set [2], the “Decomposition Point” value stood at 192.6 °C.

As for `CN1/C(=C/C=C/C=C/C=C/C=C/C2=[N+](C)c3ccc4ccccc4c3C2(Cc2ccccc2)Cc2ccccc2)C(Cc2ccccc2)(Cc2ccccc2)c2c1ccc1ccccc21` [Example 1-7, Bis(Trifluoromethane Sulfone)Imide Salt of Compound No. 4], in data set [1], the “Solubility (MEK)” value is 3.71 wt %. The “Decomposition Point” value in data set [2] was 266.5 °C.

As for `O=S(=O)(c1ccc2c(c1)[S][Cu-]1([S]2)[S]c2ccc(S(=O)(=O)N3CCOCC3)cc2[S]1)N1CCOCC1` [Example 1-8, Quencher (1-1) Salt of Compound No. 4], the “Solubility (MEK)” value in data set [1] is 3.69 wt %. Besides, the “Decomposition Point” value in data set [2] worked out at 258.8 °C.

For `CCCN1/C(=C/C=C/C=C/C=C/C=C/C2=[N+](CCC)c3ccc4ccccc4c3C2(Cc2ccccc2)Cc2ccccc2)C(Cc2ccccc2)(Cc2ccccc2)c2c1ccc1ccccc21` [Example 1-9, Tetrafluoroborate Salt of Compound No. 6], the “Solubility (MEK)” value in data set [1] came to 1.36 wt %. In addition, in data set [2], the “Decomposition Point” value was 193.8 °C.

For `CN1/C(=C/C=C/C=C/C=C/C=C/C2=[N+](C)c3ccccc3C2(C)C)C(C)(C)c2ccccc21` [Example 1-10, bis(trifluoromethane sulfone)imide salt of Compound No. 61], the “Solubility (MEK)” value in data set [1] is listed as 0.73 wt %. For the same compound, in data set [2], the “Decomposition Point” value was determined as 238.4 °C.

Consider `CN1/C(=C/C=C/C=C/C=C/C=C/C2=[N+](C)c3ccc4ccccc4c3C23CCCCC3)C2(CCCCC2)c2c1ccc1ccccc21` [Example 1-11, bis(trifluoromethane sulfone)imide salt of Compound No. 64], for which the “Solubility (MEK)” value in data set [1] is 1.46 wt %. The “Decomposition Point” value in data set [2] was 280.7 °C.

Consider `CN1/C(=C/C=C/C=C/C=C/C=C/C2=[N+](C)c3c(c4ccccc4c4ccccc34)C2(C)C)C(C)(C)c2c1c1ccccc1c1ccccc21` [Example 1-12, bis(trifluoromethane sulfone)imide salt of Compound No. 105], for which the “Solubility (MEK)” value in data set [1] is 1.13 wt %. The “Decomposition Point” value in data set [2] was determined as 291.5 °C.

The record behind these values is patent US8460858B2, “Near-infrared-ray absorbing material containing cyanine compound, and cyanine compound” (Adeka Corporation, priority 2008, dated 2013).
